According to ChEMBL document CHEMBL1201862, “PubChem BioAssay data set” (2004):
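Tested at 5 concentrations; 48 h exposure; 96-well plates; endpoints linearly interpolated, else capped at highest concentration. GI50 = concentration required for 50% inhibition of growth.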 The source made the active and inactive calls. Cut-off read from the data, not from the text of the source: active = GI50 up to about 1.1 µM and inactive = higher.

Legend:
Test in all cases: NCI-60 cell line screen, 48 h
OVCAR-8 = test system: OVCAR-8
OVCAR-3 = test system: OVCAR-3
Malme-3M = test system: Malme-3M
M14 = test system: M14
NCI-H23 = test system: NCI-H23
SNB-19 = test system: SNB-19
T47D = test system: T47D
ACHN = test system: ACHN
NCI-H522 = test system: NCI-H522
DU-145 = test system: DU-145
SF-539 = test system: SF-539
RPMI-8226 = test system: RPMI-8226
HOP-92 = test system: HOP-92
COLO 205 = test system: COLO 205
NCI-H460 = test system: NCI-H460
SK-MEL-28 = test system: SK-MEL-28
NCI/ADR-RES = test system: NCI/ADR-RES
IGROV-1 = test system: IGROV-1
MOLT-4 = test system: MOLT-4
KM12 = test system: KM12

Measured: GI50

C/C=C/COc1cc(NC(=S)OC(C)C)ccc1Cl.C/C=C\COc1cc(NC(=S)OC(C)C)ccc1Cl
inactive: OVCAR-8 18.7 µM | OVCAR-3 18.5 µM | Malme-3M 15 µM | M14 24.2 µM | NCI-H23 16.9 µM | SNB-19 20.7 µM | T47D 16.9 µM | ACHN 17.7 µM | NCI-H522 14.1 µM | DU-145 26.5 µM | SF-539 19.8 µM | RPMI-8226 70.1 µM | HOP-92 11.8 µM | COLO 205 17.6 µM | NCI-H460 16 µM | SK-MEL-28 17.6 µM | NCI/ADR-RES 16 µM | IGROV-1 19.6 µM | MOLT-4 14.8 µM | KM12 17.4 µM

OCC(O)C(O)C(O)C(O)c1nc2cc(Cl)ccc2[nH]1 (stereo not given)
inactive: OVCAR-8 > 100 µM | OVCAR-3 > 100 µM | Malme-3M > 100 µM | M14 > 100 µM | NCI-H23 > 100 µM | SNB-19 > 100 µM | T47D > 100 µM | ACHN > 100 µM | NCI-H522 > 100 µM | DU-145 > 100 µM | SF-539 > 100 µM | RPMI-8226 > 100 µM | HOP-92 > 100 µM | COLO 205 > 100 µM | NCI-H460 > 100 µM | SK-MEL-28 > 100 µM | NCI/ADR-RES > 100 µM | IGROV-1 > 100 µM | MOLT-4 > 100 µM | KM12 > 100 µM

Cc1cc(/N=C/c2ccc(N(C)C)cc2)n(-c2ccccc2)n1
inactive: OVCAR-8 78 µM | OVCAR-3 9.16 µM | Malme-3M > 100 µM | M14 49.2 µM | NCI-H23 51.2 µM | SNB-19 61.2 µM | T47D 18.5 µM | ACHN > 100 µM | NCI-H522 30.1 µM | DU-145 35.6 µM | SF-539 45.9 µM | RPMI-8226 91.8 µM | HOP-92 > 100 µM | COLO 205 24.8 µM | NCI-H460 23.9 µM | SK-MEL-28 > 100 µM | NCI/ADR-RES 24.7 µM | IGROV-1 50.6 µM | MOLT-4 42.6 µM | KM12 16.7 µM

N#C/C=C1\C=CC(O)C(O)C1OC1OC(CO)C(O)C(O)C1O (stereo not given)
inactive: OVCAR-8 > 100 µM | OVCAR-3 > 100 µM | Malme-3M > 100 µM | M14 > 100 µM | NCI-H23 > 100 µM | SNB-19 > 100 µM | T47D > 100 µM | ACHN > 100 µM | NCI-H522 > 100 µM | DU-145 > 100 µM | SF-539 > 100 µM | RPMI-8226 > 100 µM | HOP-92 > 100 µM | COLO 205 > 100 µM | NCI-H460 > 100 µM | SK-MEL-28 > 100 µM | NCI/ADR-RES > 100 µM | IGROV-1 > 100 µM | MOLT-4 > 100 µM | KM12 > 100 µM
